Measurements: patent US5475029A, “Farnesyl compounds as cholesterol lowering agents” (The Board of Trustees of the Leland Stanford Junior …, priority 1993, dated 1995)

Columns and labels:
HMGal [1] = experiment: HMGal activity (in vitro β-galactosidase specific activity) in CHO-HMGal cells; assay type: cell-based; details: for reduction in HMGal activity at concentrations below the levels toxic to the cells: five isoprenoid compounds tested
Protocol: (§1) Cell Culture--All cells were grown as monolayers at 37° C. in an atmosphere of 5% CO2. CHO-HMGal cells were grown in minimal essential medium (MEM) supplemented with 0.25 mg/ml active geneticin and either 5% fetal calf serum (FCS) or 5% lipid-poor fetal calf serum (LPS).
Stock Solutions--Stock solutions of farnesyl acetate, ethyl farnesyl ether, and the mixture of 25-hydroxycholesterol with cholesterol were all made in 100% ethanol at 100 times the final concentration. In all experiments in which these compounds were used, there is a final concentration of 1% ethanol in the medium. For control, cells grown with "no additives" or "mevalonate" 100% ethanol was added to the medium to bring the final concentration of ethanol to 1%. The mevalonate stock solution was prepared at a concentration of 2M in 20 mM potassium phosphate buffer (pH 4.5).
(§2) β-galactosidase Specific Activity--In vitro β-galactosidase activity was measured using the substrate, o-nitrophenyl-β-D-galactopyranoside. Specific activities were calculated using protein concentration values.
Farnesyl acetate and ethyl farnesyl ether stimulate a reduction in HMGal activity--In an attempt to identify tile non-sterol metabolite(s) that triggers the down regulation of HMG-CoA reductase, five commercially available isoprenoid compounds were tested for their effects on HMGal activity in CHO-HMGal cells. Each of tile compounds tested closely resembled one of tile naturally occurring isoprenoid pyrophosphates, except that the pyrophosphate group had been replaced by either a hydroxyl or an […] group. The compounds tested included: 3-methyl-2-buten-1-ol, the alcohol of the five carbon isoprenoid-dimethylallyl pyrophosphate (a naturally occurring isomer of isopentenyl pyrophosphate); geraniol and geranyl acetate, the alcohol and the […] of the ten carbon isoprenoid-geranyl pyrophosphate; and farnesol and farnesyl acetate, the alcohol and the […] of the fifteen carbon isoprenoid-farnesyl pyrophosphate.
(§3) To confirm that the reduction in HMGal activity was the result of a regulatory function specifically targeting the membrane domain of HMGal, the effects of farnesyl acetate on β-galactosidase activity were measured in vitro for both CHO-HMGal cells and CHO-Gal cells. The CHO-Gal cells had been stably transfected with a construct identical to the HMGal construct (using the same vector, promoter, and 5' and 3' flanking regions) except that the construct in the CHO-Gal cells codes for a soluble β-galactosidase protein instead of the HMGal fusion protein with the membrane domain of HMG-CoA reductase. In this experiment, the CHO-Gal cells served to control for any artifacts farnesyl acetate might cause in the β-galactosidase assay or any nonspecific effects farnesyl acetate might have on the rates of protein synthesis or degradation.

β-galactosidase = β-galactosidase activity in CHO-Gal control cells; assay type: cell-based
Protocol: as §2, §3

CHO-HMGal cells = experiment: Cell growth of CHO-HMGal cells in farnesyl compounds; assay type: cell-based; details: 20 μg/ml
Protocol: as §1
Cell growth in farnesyl acetate and ethyl farnesyl ether CHO-HMGal cells were grown in a range of farnesyl acetate and ethyl farnesyl ether concentrations, in order to determine the optimal concentration of the farnesyl compounds to use in subsequent experiments.

HMG-CoA reductase [2] = experiment: HMG-CoA reductase degradation rate (pulse-chase); assay type: cell-based; details: 10 μg/ml during chase; untreated 9.3 hours
Protocol: (§4) Measurement of HMGal and HMG-CoA Reductase Degradation Rates Cells grown in 60×15 mm dishes were washed once with ice-cold PBS and starved for 1 hour in 1 ml of methionine-free MEM supplemented with 5% LPS, 250 μg/ml of active geneticin, 10 μM compactin, and 0.1 mM mevalonate. These cells were radio-labeled for 2 hours in 300 μl of the methionine-free starvation medium containing 100 μCi of Tran^35 S-label (>1,000 Ci/mmol). Cells were incubated in an MEM-based chase medium containing 2 mM methionine, 5% LPS, 250 μg/ml of active geneticin, 10 μM compactin, and 0.1 mM mevalonate. During the chase period, some plates also had either 20 mM mevalonate, 10 μg/ml farnesyl acetate or 10 μg/ml ethyl farnesyl ether added to them as indicated in the figure legend. Following the chase, cells were washed, lysed and the HMGal and HMG-CoA reductase proteins were immunoprecipitated, subjected to SDS-PAGE and quantified.
(§5) In order to test whether the farnesyl compounds impact degradation, the rates of degradation for HMGal, HMG-CoA reductase, and total cellular protein were measured in the presence and absence of 10 μg/ml farnesyl acetate and ethyl farnesyl ether.

HMGal [3] = experiment: HMGal degradation rate (pulse-chase); assay type: cell-based; details: 10 μg/ml during chase; untreated 6.4 hours
Protocol: as §4, §5

total cellular protein = experiment: Total cellular protein degradation; assay type: cell-based; details: 10 μg/ml
Protocol: as §4, §5

cholesterol biosynthesis = experiment: [3H]acetate incorporation into cholesterol in CHO-HMGal cells; assay type: cell-based
Protocol: (§6) Thin Layer Chromatography--TLC was performed using Analtech 250 μm silica gel G plates with a hexanes/diethyl ether (1:1) solvent system. Lipid standards were visualized by iodine staining. Bands were scraped from the plate and their radioactivity was measured.
(§7) Quantification of Radioactivity--Samples were suspended in 4 ml of scintillation fluid (Cytoscint from ICN). The radioactivity of the samples was measured using a Beckman LS-7500 scintillation counter.
Subsequently, the cells were labeled for 1,2, and 4 hours with [^3 H]acetate and harvested. The non-saponifiable lipid fraction from each cell type was extracted and separated by TLC. The radioactivity that co-migrated with cholesterol was measured and normalized for the amount of cellular protein.
Farnesyl acetate and ethyl farnesyl ether were only present during the labeling period so that any reduction in incorporation into cholesterol would be the result of inhibition and not a down regulation in HMG-CoA reductase.

[4] = test system: cholesterol biosynthetic pathway; experiment: TLC distribution of [3H]acetate-derived non-saponifiable lipids (site of metabolic block); assay type: cell-based; design: radioactivity in the cell-derived fraction co-migrating with lanosterol / radioactivity in the cell-derived fraction co-migrating with squalene / radioactivity in the cell-derived fraction co-migrating with cholesterol / remaining radioactivity in the cell-derived fraction scattered throughout the rest of the TLC lane: concentration or dose not given beside the values
Protocol: Lipid Saponification and Extraction Procedure Saponification and extraction of lipids from cell and media samples was performed as previously described in Bradfute, et al. (1992) J.B.C. 267:18308-18314.
as §6, §7
To determine tile site of tile metabolic block caused by farnesyl acetate and ethyl farnesyl ether, the non-saponifiable lipids from cells grown in the presence of the farnesyl compounds were examined for the accumulation of intermediates in the cholesterol biosynthetic pathway. The cells were only labeled for 1 hour and only treated with the farnesyl compounds during the labeling period; so that any intermediates which accumulated would be as a result of the inhibitory effects of the farnesol compounds and not subsequent regulatory effects on HMG-CoA reductase. CHO-HMGal cells were incubated with [^3 H]acetate and either farnesyl acetate, ethyl farnesyl ether, or no additive. The non-saponifiable lipids were isolated from both the cell, and the medium and separated by TLC.

HMG-CoA reductase [5] = experiment: HMG-CoA reductase synthesis rate ([35S]methionine incorporation); assay type: cell-based; details: 20 mM
Protocol: (§8) Measurement of HMGal and HMG-CoA Reductase Synthesis Rates Cells plated into 60×15 mm dishes were grown in 5% LPS MEM with 0.25 mg/ml active geneticin for 24 hours. These cells were washed with PBS and grown for 24 hours in 5% LPS MEM supplemented with 0.25 mg/ml active geneticin, 10 μM compactin and 0.1 mM mevalonate. After 24 hours, the medium was removed, the cells were washed with PBS and the medium was replaced with methionine-free MEM supplemented with 5% LPS, 250 μg/ml of active geneticin, 10 μM compactin, and 0.1 mM mevalonate. In addition, 20 mM mevalonate or 10 μg/ml farnesyl acetate was included in those plates previously treated with these compounds. […] Cells were washed, lysed and the HMGal and HMG-CoA reductase proteins were immunoprecipitated, subjected to SDS-PAGE and quantified. […]
(§9) Farnesyl compounds reduce translation and stimulate degradation of HMG-CoA reductase and HMGal A reduction in HMGal specific activity triggered by the farnesyl compounds could have been the result of a decrease in HMGal synthesis, an increase in HMGal degradation, or a combination of changes in both the synthesis and degradation rates. In order to test whether the farnesyl compounds impact synthesis, the rates of HMGal, HMG-CoA reductase, and total cellular protein synthesis were measured by [^35 S]methionine incorporation in the presence and absence of 10 μg/ml farnesyl acetate.

HMGal [6] = experiment: HMGal synthesis rate ([35S]methionine incorporation); assay type: cell-based; details: 20 mM
Protocol: as §8, §9

squalene synthase = experiment: Squalene synthase assay (cell lysate); assay type: biochemical; details: 1 nM to 50 μM
Protocol: Squalene Synthase Assay--The cell lysate was prepared immediately prior to running the assay. Cells were washed three times with PBS, once with a 0.1M potassium phosphate buffer (pH 7.4) containing 5 mM MgCl2 and 5 mM CHAPS, and once with a 0.01M potassium phosphate buffer (pH 7.4) containing 0.5 mM MgCl2 and 0.5 mM CHAPS. Cells were scraped with a rubber policeman in approximately 0.5 ml of the final wash buffer and dounce homogenized with 20 strokes, while on ice. An aliquot of cell lysate was examined with a light microscope to ensure that essentially all cells in the sample were lysed. An additional aliquot of cell lysate was saved for protein determination. […] The squalene was isolated by TLC and the radioactivity of the squalene bands was measured as previously described. […]
Since both farnesyl compounds have a structural similarity to farnesyl pyrophosphate, the substrate for squalene synthase, and some of the farnesyl compounds that have been tested function as a competitive inhibitor of squalene synthase, the effects of farnesyl acetate on in vitro squalene synthase activity was measured. As a positive control, squalene synthase activity was also measured in tile presence of zaragozic acid A, a potent competitive inhibitor of the enzyme. […]

[7] = 1 hour labeling with [3H]acetate, compound only during labeling

CC(C)=CCO [3-methyl-2-buten-1-ol, reference compound]
reduction in HMGal activity at concentrations below the levels toxic to the cells (HMGal [1]): only farnesyl acetate stimulated a reduction in HMGal activity

CCOCC=C(C)CCC=C(C)CCC=C(C)C [ethyl farnesyl ether]
reduction of HMGal activity (HMGal [1]; 10 μg/ml, 24 hour treatment): 40% | reduction of HMGal activity (HMGal [1]; 20 μg/ml): 50% | change of β-galactosidase activity of CHO-Gal cells (β-galactosidase; 10 μg/ml): insignificant | change of β-galactosidase activity of CHO-Gal cells (β-galactosidase; 20 μg/ml): essentially unchanged | reduction in cell growth (CHO-HMGal cells): approximately 60% | half-life of HMG-CoA reductase (HMG-CoA reductase [2]): 2.9 h | reduction of the half-life of HMG-CoA reductase (HMG-CoA reductase [2]): 70% | half-life of HMGal (HMGal [3]): 3.0 h | reduction of the half-life of HMGal (HMGal [3]): 50% | effect on the degradation of total cellular protein (total cellular protein): Neither farnesyl compound had a significant effect | reduction in [3H]acetate incorporation into cholesterol (cholesterol biosynthesis; 24 hours pretreatment, then labeled 1, 2 and 4 hours, CHO-HMGal cells): 95% | reduction in [3H]acetate incorporation into cholesterol (cholesterol biosynthesis; compound present only during the labeling period, no pretreatment): 98% | radioactivity in the cell-derived fraction co-migrating with cholesterol [4, 7]: 1% | radioactivity in the cell-derived fraction co-migrating with lanosterol [4, 7]: 48% | radioactivity in the cell-derived fraction co-migrating with squalene [4, 7]: 45% | remaining radioactivity in the cell-derived fraction scattered throughout the rest of the TLC lane [4, 7]: 6% | total non-saponifiable radioactivity found in the medium ([4]; untreated 6%): 14% | total non-saponifiable radioactivity found in the cells ([4]; untreated 94%): 86% | increase in media-derived material co-migrating with farnesol ([4]; versus untreated sample): 2 fold

CC(C)=CCCC(C)=CCCC(C)=CCO [farnesol, reference compound]
reduction in HMGal activity at concentrations below the levels toxic to the cells (HMGal [1]): only farnesyl acetate stimulated a reduction in HMGal activity

CC(C)=CCC/C(C)=C/CO [geraniol, reference compound]
reduction in HMGal activity at concentrations below the levels toxic to the cells (HMGal [1]): only farnesyl acetate stimulated a reduction in HMGal activity

CC(=O)OC/C=C(\C)CCC=C(C)C [geranyl acetate, reference compound]
reduction in HMGal activity at concentrations below the levels toxic to the cells (HMGal [1]): only farnesyl acetate stimulated a reduction in HMGal activity

CC(O)(CCO)CC(=O)O (centres unmarked) [mevalonate, reference compound]
reduction in HMG-CoA reductase synthesis (HMG-CoA reductase [5]): 70% | reduction in the rate of HMGal synthesis (HMGal [6]): 70%

C=C(CC[C@]12O[C@H](C(=O)O)[C@@](O)(C(=O)O)[C@](C(=O)O)(O1)[C@H](OC(=O)/C=C/[C@@H](C)C[C@@H](C)CC)[C@H]2O)[C@@H](OC(C)=O)[C@H](C)Cc1ccccc1 [zaragozic acid A, reference compound]
inhibition of in vitro squalene synthase activity (squalene synthase): more than 90%
